Source: patent US20040102469A1, “Method for reducing the mortality rate” (Boehringer Ingelheim Pharma GmbH & Co. KG, priority 2002, published 2004)

Columns and labels:
[1] = five-year study; cited from earlier work
[2] = test system: people with lung diseases, especially COPD; assay: mortality from respiratory disease in people with lung diseases regularly self-administering tiotropium through the HANDIHALER inhalation device; type: in vivo; conditions: regular self-administration by inhalation via HANDIHALER; compared with a population with similar characteristics not treated with tiotropium
Text: This is evidence by the number of people with lung diseases, especially COPD, who die from respiratory disease in a given prolonged period of time when regularly self-administering tiotropium through the HANDIHALER® inhalation device; the comparison being a population with similar characteristics not treated with tiotropium.

| Compound | influence on mortality [1] | reduction of the mortality rate (number of people who die from respiratory disease in a given prolonged period of time) [2] |
| --- | --- | --- |
| CC(C)[N+]1(C)[C@@H]2CC[C@H]1CC(OC(=O)C(CO)c1ccccc1)C2.[Br-] (some centres unmarked) [ipratropium bromide] | did not show any influence on mortality | – |
| C[N+]1(C)C2C[C@H](OC(=O)C(O)(c3cccs3)c3cccs3)CC1[C@H]1OC21 (stereo partly drawn) [tiotropium, (1α,2β,4β,5α,7β)-7-[(hydroxydi-2-thienylacetyl)oxy]-9,9-dimethyl-3-oxa-9-azoniatricyclo[3.3.1.0^2,4]nonane bromide] | – | suitable in the reduction of the mortality rate |
